Laboratory results taken from patent publication US20220071932A1, “Compositions and Methods Against Stress-Induced Affective Disorders and Their Associated Symptoms” (The Trustees of Columbia University in the City of New York, priority 2019, published 2022).

How the values were obtained:
[1] = test system: 129S6/SvEv mice; assay: Forced swim test (FST); immobility time; assay type: in vivo; conditions: for p, Fisher's PLSD Saline vs. drug, FST Day 2 Immobility Time (sec): drug 1 week before stress; for Behavior: Depressive-like: dose 30 mg/kg
Protocol: The FST was administered as previously described (47). Briefly, mice were placed into clear plastic buckets 20 cm in diameter and 23 cm deep filled ⅔ of the way with 22° C. water. Mice were videotaped from the side for 6 min and were exposed to the swim test on 2 consecutive days Immobility time was scored by an experimenter blind to the experimental groups.

[2] = test system: 129S6/SvEv mice; assay: Anxiety-like behavior, summary of anxiety tests (OF, MB, EPM); assay type: in vivo; conditions: (R,S)-ketamine 30 mg/kg, FENM 20 mg/kg, vs saline
Protocol: Testing was performed as previously described (47). Briefly, the maze is a plus-cross-shaped apparatus consisting of four arms, two open and two enclosed by walls, linked by a central platform at a height of 50 cm from the floor. Mice were individually placed in the center of the maze facing an open arm and were allowed to explore the maze for 5 min. The time spent in and the number of entries into the open arms was used as an anxiety index. Videos were scored using ANY-maze behavior tracking software (Stoelting, Wood Dale, Ill.).
The OF assay was administered as previously described (47). Briefly, motor activity was quantified in 4 Plexiglas open field boxes 43×43 cm^2 (MED Associates, Georgia, Vt.). Two sets of 16 pulse-modulated infrared photobeams on opposite walls 2.5-cm apart recorded x-y ambulatory movements. Activity chambers were computer interfaced for data sampling at 100-ms resolution. The computer defined grid lines that dividing center and surround regions, with the center square consisting of four lines 11 cm from the wall.
The MB assay was conducted in a clean cage (10.5 in×5.5 in) containing soft pliable Beta Chip bedding (Northeastern Products Corp, Warrensburg, N.Y.). The cage contained 16 marbles set up in 4 rows of 4 across. Mice were given 30 minutes to explore and bury. At the end of the assay, the percentage of marbles buried was calculated.

[3] = test system: NR2A subunit of the NMDAR; assay: Western blotting of hippocampus after fear memory recall; assay type: in vivo, mice; conditions: one week prior to CFC, (R,S)-ketamine 30 mg/kg, FENM 20 mg/kg, vs saline
Protocol: Samples from mouse hippocampus and prefrontal cortex were dissected, snap frozen, and stored at −80° C. Brain tissue was homogenized in RIPA buffer with protease inhibitor (Thermo Fisher Scientific, Waltham, Mass.; Roche, Basel, Switzerland) using a motorized pestle mixer (Argos Technologies, Vernon Hills, Ill.) and spun at 1000 g×14 minutes to remove cell debris. Protein concentration was determined using a Bradford protein assay (Bio-Rad, Hercules, Calif.). 4× Laemmli buffer and β-mercaptoethanol (Bio-Rad, Hercules, Calif.) was added to the samples, which were then boiled at 90° C. for five minutes. 50 μg of each sample was separated by SDS/PAGE, and proteins were transferred onto PVDF membrane (GE Healthcare Life Sciences, Marlborough, Mass.). Membranes were then blocked in 1×TBS with 0.1% Tween-20 and 5% BSA for 1 hr at RT. Incubation with primary antibodies was performed at 4° C. overnight (rabbit anti-β-tubulin, 1:10000, Abc am, Cambridge, UK, ab6046; rabbit anti-NR2A, 1:1000, Alomone Labs, Jerusalem, Israel, AGC-002; rabbit anti-NR2B, 1:600, Alomone Labs, Jerusalem, Israel, AGC-003; mouse anti-GluR1, 1:1000, Millipore Sigma, Burlington, Mass., MAB2263) in 1×TBS with 0.1% Tween-20 and 5% BSA. […]

[4] = 30 mg/kg, drug 5 minutes after stress, FIG. 2F
[5] = Saline vs. (R,S)-ketamine (30 mg/kg), FIG. 8H

SMILES: CNC1(c2ccccc2Cl)CCCCC1=O (racemic) [(R,S)-ketamine, reference compound]
- p, Fisher's PLSD Saline vs. drug, FST Day 2 Immobility Time (sec) ([1]; 30 mg/kg, after ANOVA, FIG. 1G): 0.0007
- p, Fisher's PLSD Saline vs. drug, FST Day 2 Immobility Time (sec) ([1]; 30 mg/kg, after RMANOVA, FIG. 1F): 0.0003
- p, Fisher's PLSD Saline vs. drug, FST Day 2 Immobility Time Min 1 (s) [1, 4]: 0.7994
- p, Fisher's PLSD Saline vs. drug, FST Day 2 Immobility Time Min 2 (s) [1, 4]: 0.0125
- p, Fisher's PLSD Saline vs. drug, FST Day 2 Immobility Time Min 3 (s) [1, 4]: 0.8598
- p, Fisher's PLSD Saline vs. drug, FST Day 2 Immobility Time Min 4 (s) [1, 4]: 0.2874
- p, Fisher's PLSD Saline vs. drug, FST Day 2 Immobility Time Min 5 (s) [1, 4]: 0.6526
- p, Fisher's PLSD Saline vs. drug, FST Day 2 Immobility Time Min 6 (s) [1, 4]: 0.1586
- p, Fisher's PLSD Saline vs. drug, FST Day 2 Immobility Time (s) ([1]; 30 mg/kg, drug 5 minutes after stress, after ANOVA, FIG. 2G): 0.0466
- immobility time, day 2 of the FST ([1]; 5 min prior to CFC, (R,S)-ketamine 30 mg/kg, FENM 20 mg/kg, vs saline): significantly decreased immobility time
- Behavior: Depressive-like ([1]; Antidepressant (5 min after stress)): ↓
- p, Immobility Time (s), FST Day 2, Saline vs. drug ([1]; Fisher's PLSD after ANOVA, drug 5 minutes after stress, FENM 20 mg/kg, (R,S)-ketamine 30 mg/kg, FIG. 3K): 0.6082
- p, Immobility Time (s), FST Day 2, Saline vs. drug ([1]; Fisher's PLSD after RMANOVA, drug 5 minutes after stress, FENM 20 mg/kg, (R,S)-ketamine 30 mg/kg, FIG. 3J): 0.8125
- Behavior: Depressive-like ([1]; Prophylactic (5 min before stress)): ↓
- Behavior: Depressive-like ([1]; Prophylactic (7 days before stress)): ↓
- Forced Swim Test Day 1, Immobility Time Min 1 (sec), p (Fisher's LSD) [1, 5]: 0.0026
- Forced Swim Test Day 1, Immobility Time Min 2 (sec), p (Fisher's LSD) [1, 5]: 0.2638
- Forced Swim Test Day 1, Immobility Time Min 3 (sec), p (Fisher's LSD) [1, 5]: 0.2171
- Forced Swim Test Day 1, Immobility Time Min 4 (sec), p (Fisher's LSD) [1, 5]: 0.6849
- Forced Swim Test Day 1, Immobility Time Min 5 (sec), p (Fisher's LSD) [1, 5]: 0.2114
- Forced Swim Test Day 1, Immobility Time Min 6 (sec), p (Fisher's LSD) [1, 5]: 0.0499
- Forced Swim Test Day 2, Immobility Time (sec), p (Fisher's LSD) ([1]; Saline vs. (R,S)-ketamine (30 mg/kg), after ANOVA, FIG. 8K): 0.0046
- Forced Swim Test Day 2, Immobility Time (sec), p (Fisher's LSD) ([1]; Saline vs. (R,S)-ketamine (30 mg/kg), after RMANOVA, FIG. 8J): 0.0036
- behavior in all anxiety tests, with the exception of the time spent in the center of the OF ([2]; 5 min after context re-exposure 1): did not alter behavior
- behavior in all anxiety tests ([2]; 5 minutes prior to context re-exposure 1 (24 h after CFC)): did not alter behavior
- NR2A expression in the hippocampus [3]: comparable
